From ChEMBL document CHEMBL3297661, “1-Substituted-5-[(3,5-dinitrobenzyl)sulfanyl]-1H-tetrazoles and their isosteric analogs: A new class of selective antitubercular agents active against drug-susceptible and multidrug-resistant mycobacteria” (Eur J Med Chem, 2014)
Values after ≈ are worked out from the molar mass of the structure shown.

Key:
[1] = tested on: Nakaseomyces glabratus; test: Antifungal activity against Candida glabrata 20/I after 24 hrs by broth microdilution method; format: functional
[2] = tested on: Klebsiella pneumoniae; test: Antibacterial activity against Klebsiella pneumoniae D 11750/08 after 24 hrs by broth microdilution method; format: functional
[3] = tested on: Mycobacterium avium; test: Antimycobacterial activity against Mycobacterium avium CNCTC My 330/88 after 14 days by micromethod; format: functional; conditions: CNCTC My 330/88, 336 h
[4] = tested on: Mycobacterium kansasii; test: Antimycobacterial activity against Mycobacterium kansasii 6509/96 after 14 days by micromethod; format: functional; conditions: 6509/96, 336 h
[5] = tested on: Candida albicans; test: Antifungal activity against Candida albicans ATCC 44859 after 48 hrs by broth microdilution method; format: functional; conditions: ATCC 44859, 48 h
[6] = tested on: Mycobacterium kansasii; test: Antimycobacterial activity against Mycobacterium kansasii CNCTC My 235/80 after 7 days by micromethod; format: functional; conditions: CNCTC My 235/80, 168 h
[7] = tested on: Staphylococcus epidermidis; test: Antibacterial activity against Staphylococcus epidermidis H 6966/08 after 24 hrs by broth microdilution method; format: functional; conditions: H 6966/08, 24 h
[8] = tested on: Staphylococcus epidermidis; test: Antibacterial activity against Staphylococcus epidermidis H 6966/08 after 48 hrs by broth microdilution method; format: functional; conditions: H 6966/08, 48 h
[9] = tested on: Klebsiella pneumoniae; test: Antibacterial activity against extended spectrum beta-lactamase producing Klebsiella pneumoniae J 14368/08 after 24 hrs by broth microdilution method; format: functional
[10] = tested on: Mycobacterium kansasii; test: Antimycobacterial activity against Mycobacterium kansasii 6509/96 after 7 days by micromethod; format: functional; conditions: 6509/96, 168 h
[11] = tested on: Trichosporon asahii; test: Antifungal activity against Trichosporon asahii 1188 after 48 hrs by broth microdilution method; format: functional; conditions: Trichosporon asahii, 1188, 48 h
[12] = tested on: Lichtheimia corymbifera; test: Antifungal activity against Absidia corymbifera 272 after 24 hrs by broth microdilution method; format: functional, organism-based; conditions: Lichtheimia corymbifera, 272, 24 h
[13] = tested on: Candida albicans; test: Antifungal activity against Candida albicans ATCC 44859 after 24 hrs by broth microdilution method; format: functional; conditions: ATCC 44859, 24 h
[14] = tested on: Pseudomonas aeruginosa; test: Antibacterial activity against Pseudomonas aeruginosa ATCC 9027 after 48 hrs by broth microdilution method; format: functional; conditions: ATCC 9027, 48 h
[15] = tested on: Klebsiella pneumoniae; test: Antibacterial activity against Klebsiella pneumoniae D 11750/08 after 48 hrs by broth microdilution method; format: functional; conditions: D 11750/08, 48 h
[16] = tested on: Klebsiella pneumoniae; test: Antibacterial activity against extended spectrum beta-lactamase producing Klebsiella pneumoniae J 14368/08 after 48 hrs by broth microdilution method; format: functional; conditions: J 14368/08, 48 h
[17] = tested on: Nakaseomyces glabratus; test: Antifungal activity against Candida glabrata 20/I after 48 hrs by broth microdilution method; format: functional
[18] = tested on: Mycobacterium kansasii; test: Antimycobacterial activity against Mycobacterium kansasii CNCTC My 235/80 after 21 days by micromethod; format: functional; conditions: CNCTC My 235/80, 504 h
[19] = tested on: Aspergillus fumigatus; test: Antifungal activity against Aspergillus fumigatus 231 after 48 hrs by broth microdilution method; format: functional, organism-based; conditions: Aspergillus fumigatus, 231, 48 h
[20] = tested on: Mycobacterium tuberculosis; test: Antimycobacterial activity against Mycobacterium tuberculosis CNCTC My 331/88 after 14 days by micromethod; format: functional; conditions: CNCTC My 331/88, 336 h
[21] = tested on: Staphylococcus aureus; test: Antibacterial activity against Staphylococcus aureus ATCC 6538 after 48 hrs by broth microdilution method; format: functional; conditions: ATCC 6538, 48 h
[22] = tested on: Mycobacterium kansasii; test: Antimycobacterial activity against Mycobacterium kansasii 6509/96 after 21 days by micromethod; format: functional; conditions: 6509/96, 504 h
[23] = tested on: Staphylococcus aureus; test: Antibacterial activity against methicillin-resistant Staphylococcus aureus H 5996/08 after 48 hrs by broth microdilution method; format: functional; conditions: H 5996/08, 48 h
[24] = tested on: Mycobacterium kansasii; test: Antimycobacterial activity against Mycobacterium kansasii CNCTC My 235/80 after 14 days by micromethod; format: functional; conditions: CNCTC My 235/80, 336 h
[25] = tested on: Pichia kudriavzevii; test: Antifungal activity against Candida krusei E28 after 48 hrs by broth microdilution method; format: functional; conditions: E28, 48 h
[26] = tested on: Trichophyton mentagrophytes; test: Antifungal activity against Trichophyton mentagrophytes 445 after 120 hrs by broth microdilution method; format: functional, organism-based; conditions: Trichophyton mentagrophytes, 445, 120 h
[27] = tested on: Trichophyton mentagrophytes; test: Antifungal activity against Trichophyton mentagrophytes 445 after 72 hrs by broth microdilution method; format: functional, organism-based; conditions: Trichophyton mentagrophytes, 445, 72 h
[28] = tested on: Escherichia coli; test: Antibacterial activity against Escherichia coli ATCC 8739 after 48 hrs by broth microdilution method; format: functional; conditions: ATCC 8739, ATCC 8739, 48 h
[29] = tested on: Candida tropicalis; test: Antifungal activity against Candida tropicalis 156 after 48 hrs by broth microdilution method; format: functional; conditions: Candida tropicalis, 156, 48 h
[30] = tested on: Pichia kudriavzevii; test: Antifungal activity against Candida krusei E28 after 24 hrs by broth microdilution method; format: functional; conditions: E28, 24 h
[31] = tested on: Lichtheimia corymbifera; test: Antifungal activity against Absidia corymbifera 272 after 48 hrs by broth microdilution method; format: functional, organism-based; conditions: Lichtheimia corymbifera, 272, 48 h
[32] = tested on: Trichosporon asahii; test: Antifungal activity against Trichosporon asahii 1188 after 24 hrs by broth microdilution method; format: functional; conditions: Trichosporon asahii, 1188, 24 h
[33] = tested on: Aspergillus fumigatus; test: Antifungal activity against Aspergillus fumigatus 231 after 24 hrs by broth microdilution method; format: functional, organism-based; conditions: Aspergillus fumigatus, 231, 24 h
[34] = tested on: Escherichia coli; test: Antibacterial activity against Escherichia coli ATCC 8739 after 24 hrs by broth microdilution method; format: functional
[35] = tested on: Enterococcus faecalis; test: Antibacterial activity against Enterococcus faecalis J 14365/08 after 24 hrs by broth microdilution method; format: functional; conditions: J 14365/08, 24 h
[36] = tested on: Mycobacterium tuberculosis; test: Antimycobacterial activity against Mycobacterium tuberculosis CNCTC My 331/88 after 21 days by micromethod; format: functional; conditions: CNCTC My 331/88, 504 h
[37] = tested on: Staphylococcus aureus; test: Antibacterial activity against Staphylococcus aureus ATCC 6538 after 24 hrs by broth microdilution method; format: functional; conditions: ATCC 6538, 24 h
[38] = tested on: Pseudomonas aeruginosa; test: Antibacterial activity against Pseudomonas aeruginosa ATCC 9027 after 24 hrs by broth microdilution method; format: functional
[39] = tested on: Candida tropicalis; test: Antifungal activity against Candida tropicalis 156 after 24 hrs by broth microdilution method; format: functional; conditions: Candida tropicalis, 156, 24 h
[40] = tested on: Enterococcus faecalis; test: Antibacterial activity against Enterococcus faecalis J 14365/08 after 48 hrs by broth microdilution method; format: functional; conditions: J 14365/08, 48 h
[41] = tested on: Staphylococcus aureus; test: Antibacterial activity against methicillin-resistant Staphylococcus aureus H 5996/08 after 24 hrs by broth microdilution method; format: functional; conditions: H 5996/08, 24 h
[42] = tested on: Mycobacterium avium; test: Antimycobacterial activity against Mycobacterium avium CNCTC My 330/88 after 21 days by micromethod; format: functional; conditions: CNCTC My 330/88, 504 h

## O=[N+]([O-])c1cc(CSc2cccc[n+]2[O-])cc([N+](=O)[O-])c1
[1]
  IC80: > 500 µM
[2]; D 11750/08, 24 h
  IC95: > 500 µM
[3]
  MIC: 500 µM (≈ 154 µg/mL)
[4]
  MIC: 125 µM (≈ 38.4 µg/mL)
[5]
  IC80: > 500 µM
[6]
  MIC: 16 µM (≈ 4.92 µg/mL)
[7]
  IC95: > 500 µM
[8]
  IC95: > 500 µM
[9]; J 14368/08, 24 h
  IC95: > 500 µM
[10]
  MIC: 125 µM (≈ 38.4 µg/mL)
[11]
  IC80: > 500 µM
[12]
  IC50: > 500 µM
[13]
  IC80: > 500 µM
[14]
  IC95: > 500 µM
[15]
  IC95: > 500 µM
[16]
  IC95: > 500 µM
[17]
  IC80: > 500 µM
[18]
  MIC: 32 µM (≈ 9.83 µg/mL)
[19]
  IC50: > 500 µM
[20]
  MIC: 62 µM (≈ 19.1 µg/mL)
[21]
  IC95: > 500 µM
[22]
  MIC: 125 µM (≈ 38.4 µg/mL)
[23]
  IC95: > 500 µM
[24]
  MIC: 32 µM (≈ 9.83 µg/mL)
[25]
  IC80: > 500 µM
[26]
  IC50: > 500 µM
[27]
  IC50: > 500 µM
[28]
  IC95: > 500 µM
[29]
  IC80: > 500 µM
[30]
  IC80: > 500 µM
[31]
  IC50: > 500 µM
[32]
  IC80: > 500 µM
[33]
  IC50: > 500 µM
[34]; ATCC 8739, ATCC 8739, 24 h
  IC95: > 500 µM
[35]
  IC95: > 500 µM
[36]
  MIC: 62 µM (≈ 19.1 µg/mL)
[37]
  IC95: > 500 µM
[38]; ATCC 9027, 24 h
  IC95: > 500 µM
[39]
  IC80: > 500 µM
[40]
  IC95: > 500 µM
[41]
  IC95: > 500 µM
[42]
  MIC: 1000 µM (≈ 307 µg/mL)

## C[C@@H]1[C@H](O)[C@@H](C)/C=C/C=C/C=C/C=C/C=C/C=C/C=C/[C@H](O[C@@H]2O[C@H](C)[C@@H](O)[C@H](N)[C@@H]2O)C[C@@H]2O[C@](O)(C[C@@H](O)C[C@@H](O)[C@H](O)CC[C@@H](O)C[C@@H](O)CC(=O)O[C@H]1C)C[C@H](O)[C@H]2C(=O)O [AMPHOTERICIN B]
[1]
  IC80: 0.54 µM
[12]
  IC50: 1 µM
[13]
  IC80: 0.54 µM
[27]
  IC50: 0.54 µM
[30]
  IC80: 1 µM
[32]
  IC80: 0.27 µM
[33]
  IC50: 0.54 µM
[39]
  IC80: 0.54 µM

## GENTAMICIN
[2]
  IC95: 0.26 µM
[9]
  IC95: 0.26 µM
[34]
  IC95: 0.26 µM
[38]
  IC95: 1 µM

## OC(Cn1cncn1)(Cn1cncn1)c1ccc(F)cc1F [FLUCONAZOLE]
[12]
  IC50: > 500 µM
[13]
  IC80: 0.82 µM
[27]
  IC50: 105 µM
[30]
  IC80: 105 µM
[32]
  IC80: 210 µM
[33]
  IC50: > 500 µM
[39]
  IC80: 1.6 µM

## CN[C@H](CC(C)C)C(=O)N[C@H]1C(=O)N[C@@H](CC(N)=O)C(=O)N[C@H]2C(=O)N[C@H]3C(=O)N[C@H](C(=O)N[C@H](C(=O)O)c4cc(O)cc(O)c4-c4cc3ccc4O)[C@H](O)c3ccc(c(Cl)c3)Oc3cc2cc(c3O[C@@H]2O[C@H](CO)[C@@H](O)[C@H](O)[C@H]2O[C@H]2C[C@](C)(N)[C@H](O)[C@H](C)O2)Oc2ccc(cc2Cl)[C@H]1O [VANCOMYCIN]
[7]
  IC95: 0.35 µM
[35]
  IC95: 0.7 µM
[37]
  IC95: 0.35 µM
[41]
  IC95: 0.35 µM

## O=C(O)c1cccc(-n2nnnc2SCc2cc([N+](=O)[O-])cc([N+](=O)[O-])c2)c1
[1]
  IC80: > 500 µM
[2]; D 11750/08, 24 h
  IC95: > 500 µM
[3]
  MIC: 1000 µM (≈ 402 µg/mL)
[4]
  MIC: 1000 µM (≈ 402 µg/mL)
[5]
  IC80: > 500 µM
[6]
  MIC: 500 µM (≈ 201 µg/mL)
[7]
  IC95: 500 µM
[8]
  IC95: > 500 µM
[9]; J 14368/08, 24 h
  IC95: > 500 µM
[10]
  MIC: 1000 µM (≈ 402 µg/mL)
[11]
  IC80: > 500 µM
[12]
  IC50: > 500 µM
[13]
  IC80: > 500 µM
[14]
  IC95: > 500 µM
[15]
  IC95: > 500 µM
[16]
  IC95: > 500 µM
[17]
  IC80: > 500 µM
[18]
  MIC: 1000 µM (≈ 402 µg/mL)
[19]
  IC50: > 500 µM
[20]
  MIC: 1000 µM (≈ 402 µg/mL)
[21]
  IC95: > 500 µM
[22]
  MIC: 1000 µM (≈ 402 µg/mL)
[23]
  IC95: > 500 µM
[24]
  MIC: 1000 µM (≈ 402 µg/mL)
[25]
  IC80: > 500 µM
[26]
  IC50: > 500 µM
[27]
  IC50: > 500 µM
[28]
  IC95: > 500 µM
[29]
  IC80: > 500 µM
[30]
  IC80: > 500 µM
[31]
  IC50: > 500 µM
[32]
  IC80: > 500 µM
[33]
  IC50: > 500 µM
[34]; ATCC 8739, ATCC 8739, 24 h
  IC95: > 500 µM
[35]
  IC95: > 500 µM
[36]
  MIC: 1000 µM (≈ 402 µg/mL)
[37]
  IC95: > 500 µM
[38]; ATCC 9027, 24 h
  IC95: > 500 µM
[39]
  IC80: > 500 µM
[40]
  IC95: > 500 µM
[41]
  IC95: > 500 µM
[42]
  MIC: 1000 µM (≈ 402 µg/mL)
